# Square brackets hold non-standard residues; d marks the D form. Ends that are not written are not given here. * marks the point of attachment. Aib = CC(C)(N)C(=O)O; BrAc = O=C(CBr)*
# Target: T1, human GLP1R (Homo sapiens, UniProt P43220)
# T1 construct: expressed in transfected cells; host or cells: CHO
# Experiment: GLP1R agonist cAMP assay in CHO cells stably expressing human GLP1R
# Type: cell-based
# Conditions: relative to maximal effect of human GLP-1, read-out: GLP1R agonist mode Emax (%)
# Description: cAMP assay: The in vitro agonist potency of the peptides disclosed herein was evaluated using a cell-based assay measuring cAMP production. CHO cells stably expressing human GLP1R, or both human GIPR and GLP1R, were incubated with increasing concentrations of agonists for 30 minutes at 37° C. Cells were lysed and cAMP was detected using a homogenous time resolved fluorescence detection kit, as described by the manufacturer (Revvity). […] The EC50 and maximum effect (Emax) values were then determined from the normalized effects and agonist concentrations using a four-parameter logistic equation (GraphPad Prism).
# T1 sequence (P43220 24-463): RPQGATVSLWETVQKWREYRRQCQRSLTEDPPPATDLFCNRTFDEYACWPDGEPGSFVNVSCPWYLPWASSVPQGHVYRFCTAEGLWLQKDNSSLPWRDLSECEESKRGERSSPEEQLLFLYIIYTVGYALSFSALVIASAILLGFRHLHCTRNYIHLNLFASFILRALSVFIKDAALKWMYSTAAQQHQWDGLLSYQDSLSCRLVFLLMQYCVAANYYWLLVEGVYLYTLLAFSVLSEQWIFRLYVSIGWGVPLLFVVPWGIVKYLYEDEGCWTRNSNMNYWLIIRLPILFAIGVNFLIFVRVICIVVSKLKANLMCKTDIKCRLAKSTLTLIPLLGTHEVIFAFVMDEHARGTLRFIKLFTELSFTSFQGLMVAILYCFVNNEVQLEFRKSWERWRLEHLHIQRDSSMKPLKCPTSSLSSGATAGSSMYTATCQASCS
row,Compound,Emax
1,CC[C@H](C)[C@H](NC(=O)[C@H](Cc1ccccc1)NC(=O)[C@H](CCC(=O)O)NC(=O)[C@H](CCCCN)NC(=O)[C@H](C)NC(=O)[C@H](C)NC(=O)[C@H](CCC(N)=O)NC(=O)[C@H](CCC(=O)O)NC(=O)[C@H](CCC(=O)O)NC(=O)[C@H](CC(C)C)NC(=O)[C@H](Cc1ccc(O)cc1)NC(=O)[C@H](CO)NC(=O)[C@H](CO)NC(=O)[C@H](Cc1ccc(O)cc1)NC(=O)[C@H](CC(=O)O)NC(=O)[C@H](CO)NC(=O)[C@@H](NC(=O)[C@H](Cc1ccccc1)NC(=O)[C@@H](NC(=O)CNC(=O)[C@H](CCC(=O)O)NC(=O)C(C)(C)NC(=O)[C@@H](N)Cc1c[nH]cn1)[C@@H](C)O)[C@@H](C)O)C(=O)N[C@@H](C)C(=O)N[C@@H](Cc1c[nH]c2ccccc12)C(=O)N[C@@H](CC(C)C)C(=O)N[C@H](C(=O)N[C@@H](CCCCN)C(=O)NCC(=O)NCC(=O)NCC(=O)NCC(=O)NCC(=O)NCC(=O)NCC(=O)N[C@@H](CO)C(=O)NCC(=O)NCC(=O)NCC(=O)NCC(=O)N[C@@H](CO)C(=O)NCC(=O)NCC(=O)NCC(=O)NCC(=O)N[C@@H](CO)C(=O)N[C@@H](CCCCNC(=O)CBr)C(N)=O)C(C)C [compound 154],122%
2,H[Aib]EGTFTSDVSSYLEEQAAKEFIAWLVKGGGGGGGSGGGGSGGGGSK(BrAc)-NH2 (C-terminus assumed) [compound 153],109%
3,H[Aib]EGTFTSDYSSYLEEQAAKEFIAWLVKGRGGGGGSGGGGSGGGGSK(BrAc)-NH2 (C-terminus assumed) [compound 151],109%
4,H[Aib]EGTFTSDYSSYLE[Aib]QAAKEFIAWLVKGRGGGGGSGGGGSGGGGSK(BrAc)-NH2 (C-terminus assumed) [compound 152],107%

# Reference: patent publication US20250163168A1, “NOVEL ANTIBODIES AND ANTIBODY CONJUGATES FOR THE TREATMENT OF METABOLIC DISORDERS” (PFIZER INC., priority 2023, published 2025)
